Results on four compounds are retold here after article PMC10894281, “Kinetic characterization of human mRNA guanine-N7 methyltransferase” (Scientific Reports, 2024).

Assay type in all cases: biochemical
Assay [1] deals with T1, RNA cap guanine-N7 methyltransferase (hRNMT) (Homo sapiens, UniProt O43148). As to the kind of experiment: radiometric scintillation proximity methyltransferase assay (3H-SAM, biotinylated RNA). Details: gene RNMT; RNMT (1–476), full length. For orientation: SPA uses beads or plates that emit light when radiolabelled molecules are held near them.
T1 sequence (O43148 whole entry): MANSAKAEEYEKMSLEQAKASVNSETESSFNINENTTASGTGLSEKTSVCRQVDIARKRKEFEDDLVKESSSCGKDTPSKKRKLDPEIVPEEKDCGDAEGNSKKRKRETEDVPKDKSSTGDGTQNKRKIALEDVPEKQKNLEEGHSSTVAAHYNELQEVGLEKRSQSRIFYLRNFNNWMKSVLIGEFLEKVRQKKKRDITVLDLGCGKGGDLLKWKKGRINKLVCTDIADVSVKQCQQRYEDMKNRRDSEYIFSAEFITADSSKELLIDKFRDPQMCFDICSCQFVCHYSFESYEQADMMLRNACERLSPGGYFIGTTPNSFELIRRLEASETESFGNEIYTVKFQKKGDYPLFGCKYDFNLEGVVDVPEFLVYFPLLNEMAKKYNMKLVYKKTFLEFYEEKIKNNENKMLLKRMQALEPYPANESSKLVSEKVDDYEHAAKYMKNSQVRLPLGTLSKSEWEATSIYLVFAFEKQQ
Assay [2] has as its target T1, RNA cap guanine-N7 methyltransferase (hRNMT). Nature of the assay: radiometric scintillation proximity methyltransferase assay (3H-SAM, biotinylated RNA); product inhibition. Details: gene RNMT; RNMT (1–476), full length.
For assay [3] the target is unchanged. As to the kind of experiment: steady-state kinetics, apparent Km by radiometric scintillation proximity assay. Further details: gene RNMT; RNMT (1–476), full length; also catalytic domain RNMT (123–476). Particulars: read-out: Km^app.

What is called IC50 is the concentration at which inhibition is half-maximal. As a reminder, the Km is the substrate concentration at which the rate is half of its maximum.

Each structure is given as a SMILES string.

In the case of `Nc1ncnc2c1ncn2[C@@H]1O[C@H](C[C@@H](N)CC[C@H](N)C(=O)O)[C@@H](O)[C@H]1O` [Sinefungin], the concentration for half-maximal inhibition (IC50) in assay [1] is 3 ± 0.6 nM.

Compound `Nc1ncnc2c1ncn2[C@@H]1O[C@H](CSCC[C@H](N)C(=O)O)[C@@H](O)[C@H]1O` [SAH] yielded an IC50 in assay [2] of 389 ± 110 nM.

Turning to `C[S+](CC[C@H](N)C(=O)[O-])C[C@H]1O[C@@H](n2cnc3c(N)ncnc32)[C@H](O)[C@@H]1O` (stereo partly shown) [SAM], the Michaelis-Menten constant (Km) in assay [3] was 0.19 ± 0.038 µM.

As for `Cc1ccc(C(=O)Nc2ccc(S(=O)(=O)O)c3cc(S(=O)(=O)O)cc(S(=O)(=O)O)c23)cc1NC(=O)c1cccc(NC(=O)Nc2cccc(C(=O)Nc3cc(C(=O)Nc4ccc(S(=O)(=O)O)c5cc(S(=O)(=O)O)cc(S(=O)(=O)O)c45)ccc3C)c2)c1` [Suramin], the IC50 in assay [1] (read-out: IC50) was 5 ± 0.4 nM.
